Six compounds from patent publication US7067521B2, “1-[alkyl], 1-[(heteroaryl)alkyl] and 1-[(aryl)alkyl]-7pyridinyl-imidazo[1,2-alpha]pyrimidin-5(1H)-one derivatives” (sanofi-aventis, priority 2000, dated 2006) can be followed below.

Counter-ions that a name gives are not always drawn.

`O=c1cc(-c2ccncc2)nc2n(CCCCc3ccccc3)ccn12` (as salt: hydrochloride) [Compound 14, 1-[4-(phenyl)butyl]-7-pyridin-4-ylimidazo[1,2-a]pyrimidin-5(1H)-one]: the melting point lay within 206 to 208 °C.

In turn, `O=c1cc(-c2ccncc2)nc2n(CC=CC(F)(F)F)ccn12` [Compound 18, 1-(4,4,4-trifluorobut-2-enyl)-7-pyridin-4-ylimidazo[1,2-a]pyrimidin-5(1H)-one] yielded a melting point of 187 to 188 °C.

As for `O=C(CCn1ccn2c(=O)cc(-c3ccncc3)nc12)c1ccccc1` (as salt: hydrochloride) [Compound 23, 1-(3-phenyl-3-oxo-propyl)-7-pyridin-4-ylimidazo[1,2-a]pyrimidin-5(1H)-one], the melting point lay in the range of 208 to 211 °C.

For `O=c1cc(-c2cccnc2)nc2n(CCCc3ccccc3)ccn12` (as salt: hydrochloride) [Compound 15, 1-[3-(phenyl)propyl]-7-pyridin-3-ylimidazo[1,2-a]pyrimidin-5(1H)-one], the melting point was in the range of 184 to 185 °C.

Compound `O=c1cc(-c2ccncc2)nc2n(CC[C@H](O)C(F)(F)F)ccn12` [Compound 17, (S)-1-(4,4,4-trifluoro-3-hydroxybutyl)-7-pyridin-4-ylimidazo[1,2-a]pyrimidin-5(1H)-one] registered a melting point of 220 to 222 °C.

Compound `O=c1cc(-c2ccncc2)nc2n(C=CCC(F)(F)F)ccn12` [Compound 20, 1-(4,4,4-trifluorobut-1-enyl)-7-pyridin-4-ylimidazo[1,2-a]pyrimidin-5(1H)-one] showed a melting point of 221 to 222 °C.
